In paper PMC12713470, “Design and Synthesis of Novel Chalcone Derivatives Targeting Bladder and Liver Cancer: Cytotoxicity Evaluation and Preliminary Mechanistic Studies” (ACS Omega, 2025):

Legend:
[1] = test system: T24 cells; assay: Cell cycle progression (propidium iodide flow cytometry), T24; format: cell-based, human; details: after treatment, 48 h
Method: Cells were seeded in 12-well plates at a density of 1.0 × 10^5 cells per well and incubated for 24 h to allow adhesion. Following this initial incubation, the cells were treated with the chalcone at concentrations of 0.92, 2.15, 4.62, and 9.25 μM for an additional 48 h. After the treatment, the cells were washed, trypsinized, and collected along with the culture supernatant into Falcon tubes. The samples were then centrifuged at 1000 rpm for 10 min. After centrifugation, the supernatant was discarded, and the cell pellets were resuspended in 200 μL of propidium iodide staining solution before being transferred to cytometry tubes. These tubes were incubated on ice, in the dark, for 30 min. Flow cytometric analysis was performed on 20,000 events using a BD FACScalibur flow cytometer (BD Biosciences, Franklin Lakes, NJ, USA), and the data were analyzed using FlowJo software.

[2] = test system: MRC-5: human lung fibroblast cells; assay: MTT cytotoxicity assay on MRC-5 cells; format: cell-based; details: MRC5, 24 h incubation, n = 3, ± standard deviation
Method: (§1) Cytotoxicity was determined using the MTT colorimetric assay, and half-maximal inhibitory concentrations (IC50, μM) were obtained for all cell lines (Table ). The selectivity index (SI) was calculated as the ratio of IC50 MRC-5/IC50 cancer cell line. Doxorubicin was employed as a positive control due to its broad-spectrum clinical use, either alone or in combination, against hepatocellular, ovarian, cervical, and bladder cancers. −
(§2) In vitro biological assays were performed by using five human cell lines for cytotoxicity evaluation. HepG2 cells (ATCC HB-8065), derived from a human hepatocellular carcinoma of the liver (person), were cultured in Dulbecco’s modified Eagle medium (DMEM) supplemented with 5% fetal bovine serum (FBS), penicillin/streptomycin (100 IU/mL), and amphotericin B (5 μg/mL), in a humidified incubator with 5% CO2 at 37 °C. These cells were plated at a concentration of 2.0 × 10^4 cells/well in 96-well microplates. MRC-5 cells (ATCC CCL-171), derived from human lung fibroblasts of a […] fetus, were cultured under the same conditions and plated at 1.0 × 10^4 cells/well. T24 cells (ATCC HTB-4), established from a transitional cell carcinoma of the bladder (person), were also cultured under identical conditions and plated at a density of 1.0 × 10^4 cells/well. TOV-21G cells (ATCC CRL-11730), derived from a primary malignant ovarian adenocarcinoma (person), were maintained in DMEM with the same supplementation and environmental conditions and plated at 5.0 × 10^4 cells/well. […]
(§3) HeLa, HepG2, MRC-5, T24, and TOV-21G cells were suspended in a culture medium supplemented with 5% fetal bovine serum (FBS) and seeded into 96-well microplates. The plates were incubated under a humidified atmosphere containing 5% CO2 at 37 °C for 24 h, allowing for adherence and monolayer formation. , Eight serial dilutions of the test samples, previously solubilized in dimethyl sulfoxide (DMSO), were prepared in DMEM supplemented with 1% FBS, covering a concentration range from […], and the results were converted to […]. The volume of DMSO in each well was limited to a final concentration not exceeding 2%. Following monolayer formation, the culture medium was aspirated and replaced with 100 μL of the diluted test samples and 100 μL of DMEM containing 1% FBS. The plates were then incubated under the same atmospheric and temperature conditions.
(§4) Two hours prior to end point reading, 20 μL of MTT [3-(4,5-dimethylthiazol-2-yl)-2,5-diphenyltetrazolium bromide] solution (1.0 mg/mL in sterile phosphate-buffered saline, Sigma-Aldrich) was added to each well. The incubation period following sample addition varied according to the cell line: 24 h for MRC-5, 48 h for T24, and 72 h for HeLa, HepG2, and TOV-21G. After the appropriate incubation, absorbance was measured by using a VICTOR X3 microplate reader (PerkinElmer), and data were processed with WorkOut 2.5 software at a wavelength of 490 nm. Formazan formation, resulting from the MTT reduction by metabolically active cells, was used as an indirect measure of cell viability. The percentage of cytotoxicity was calculated using the equation % cytotoxicity = [(A – B)/A] × 100, where A is the optical density (OD4 9 0) of untreated control cells and B is the OD4 9 0 of treated cells.
(§5) Cytotoxicity was expressed as the 50% cytotoxic concentration (CC5 0), representing the concentration of sample required to reduce cell viability by 50% relative to that of the untreated control.

[3] = test system: HepG2 cells; assay: Apoptosis/necrosis analysis (annexin V/PI), HepG2; format: cell-based, human; details: 2.15, 4.62, or 9.25 μM, 48 h
Method: (§6) Cells in the exponential growth phase were seeded in 12-well plates at a density of 1 × 10^5 cells per well in 3 mL of complete culture medium. Along with the experimental groups, four control groups were included: one without labeling, one labeled only with propidium iodide (PI), one labeled only with Annexin V, and one labeled with both PI and Annexin V. After 24 h, the cells were treated with the compound at concentrations of 2.15, 4.62, 9.25, and 18.50 μM for 48 h. Following the treatment period, the supernatant from each well was transferred to cytometry tubes and centrifuged at 1100 rpm for 10 min. The remaining adhered cells were washed with 1 mL of Hanks’ solution, and 500 μL of trypsin was added to detach the cells. The trypsin action was neutralized by adding 500 μL of complete medium, and the contents (detached cells plus precentrifuged supernatant) were collected into cytometry tubes, which were then centrifuged again at 1100 rpm for 10 min. After centrifugation, the supernatant was discarded. For labeling, Annexin V binding buffer was prepared by diluting 1 mL of component C in 5 mL of distilled water. Next, a 100 μg/mL propidium iodide working solution was prepared by diluting 5 μL of the 1 mg/mL stock (component B) in 45 μL of 1× buffer. […]

[4] = test system: T24 cells; assay: Apoptosis/necrosis analysis (annexin V/PI), T24; format: cell-based, human; details: 18.50 μM, 48 h
Method: as §6

[5] = test system: HeLa: human cervical adenocarcinoma cells; assay: MTT cytotoxicity assay on HeLa cells; format: cell-based
Method: as §1, §2, §3, §4, §5

[6] = test system: T24: human urinary bladder carcinoma cells; assay: MTT cytotoxicity assay on T24 cells; format: cell-based
Method: as §1, §2, §3, §4, §5

CCCc1cc(/C=C/C(=O)c2ccc(C)cc2)c(OC)c(OC)c1 [compound 3, (E)-3-(2,3-Dimethoxy-5-propylphenyl)-1-(p-tolyl)-prop-2-en-1-one]
cell cycle distribution, T24 [1]: no difference was observed after treatment | IC50 [2]: 55.5 ± 1.2 µM | percentage of apoptotic or necrotic cells, HepG2 [3]: did not result in a significant increase | cell viability (annexin V/PI), T24 [4]: reduced cell viability | proportion of cells undergoing early apoptosis, T24 [4]: increased the proportion of cells undergoing early apoptosis | IC50 ([5]; Homo sapiens, HeLa, MTT, 72 h incubation, n = 3, NA: noncytotoxic at the concentrations tested): 5.9 ± 1.6 µM | SI (HeLa) ([5]; IC50 MRC-5/IC50 HeLa): 9.3 | IC50 ([6]; Homo sapiens, T-24, MTT, 48 h incubation, n = 3, NA: noncytotoxic at the concentrations tested): 5 ± 1.6 µM | SI (T24) ([6]; IC50 MRC-5/IC50 T24): 11.1 | potency against T24 relative to hit 1 ([6]; ratio of IC50 values, 1 vs 3): more than 32 times
